Measurements as given in patent US20220002288A1, “MONOBACTAM COMPOUNDS AND USE THEREFOR” (priority 2018, published 2022).
Counter-ions that a name gives are not always drawn.

Assays:
Format in all cases: cell-based
[1] = tested on: clinically isolated Pseudomonas aeruginosa; assay: MIC experiment of clinically sourced bacterial strains
Method: (§1) Compounds: the compound of Example 1 and Compound C of Comparative Example 3. Both test compounds were dissolved and diluted with DMSO, and the final concentrations were prepared as 64, 32, 16, 8, 4, 2, 1, 0.5, 0.25, 0.125, 0.0625 μg/mL in the experiment.
(§2) Bacterial strains: clinically isolated Acinetobacter baumannii, Pseudomonas aeruginosa, Klebsiella pneumoniae and Escherichia coli, all provided by HD Biosciences (Shanghai) Co., Ltd.
(§3) Medium: Trypticase soy agar (TSA) (BD BBL 211043), and Cation-adjusted Mueller Hinton broth (CAMHB) (BD BBL212322).
(§4) The experimental method was the same as that in the above Experimental Example 1.

[2] = tested on: clinically isolated Klebsiella pneumoniae; assay: as above; details: for MIC: Klebsiella pneumoniae
Method: as §1, §2, §3, §4

[3] = tested on: clinically isolated Acinetobacter baumannii; assay: as above; details: for MIC: Acinetobacter baumannii
Method: as §1, §2, §3, §4

[4] = tested on: clinically isolated Escherichia coli; assay: as above
Method: as §1, §2, §3, §4

[5] = tested on: drug-resistant Acinetobacter baumannii; assay: MIC in combination with Relebactam
Excerpt: In addition, the inventors of the present invention also tested the inhibitory activities of the compound of Example 1 and Compound C, respectively, in combination with Relebactam on drug-resistant Acinetobacter baumannii (the experimental method was the same as that in Experimental Example 1).

CC1(C)[C@H](NC(=O)/C(=N\O[C@@H](COc2ccc(C(=O)Nc3cn(CCCN)[n+](CC4CNC4)c3)cc2)C(=O)O)c2csc(N)n2)C(=O)N1OS(=O)(=O)[O-] [Example 1, (S)-3-((Z)-2-(((S)-2-(4-((1-(3-aminopropyl)-2-(azetidin-3-ylmethyl)-1H-pyrazol-2-ium-4-yl)carbamoyl)phenoxy)-1-carboxyethoxy)imino)-2-(2-aminothiazol-4-yl)acetylamino)-2,2-dimethyl-4-oxoazetidin-1-yl Sulfate]
MIC ([1]; clinical strain P7): 1 µg/mL
MIC ([1]; clinical strain P43): 0.25 µg/mL
MIC ([1]; clinical strain P155): 1 µg/mL
MIC ([1]; clinical strain P157): 1 µg/mL
MIC ([1]; clinical strain P162): 1 µg/mL
MIC ([2]; clinical strain Kp309): ≤ 0.063 µg/mL
MIC ([2]; clinical strain Kp310): ≤ 0.063 µg/mL
MIC ([2]; clinical strain Kp472): 0.125 µg/mL
MIC ([2]; clinical strain Kp510): 0.25 µg/mL
MIC value relative to that of Compound C ([2]; strain Kp309): ¼
MIC ([3]; clinical strain A0242702): ≤ 0.063 µg/mL
MIC ([3]; clinical strain A0244122): 0.5 µg/mL
MIC ([3]; clinical strain A0248164): 1 µg/mL
MIC ([3]; clinical strain A0248384): 1 µg/mL
MIC ([3]; clinical strain A0252247): ≤ 0.063 µg/mL
MIC ([3]; clinical strain A0254384): ≤ 0.063 µg/mL
MIC ([3]; clinical strain A0255830): 4 µg/mL
MIC ([3]; clinical strain A0257674): ≤ 0.063 µg/mL
MIC ([3]; clinical strain A0258522): ≤ 0.063 µg/mL
MIC ([3]; clinical strain A0262855): ≤ 0.063 µg/mL
MIC ([3]; clinical strain A0270386): 1 µg/mL
MIC ([3]; clinical strain A0272260): 0.125 µg/mL
MIC ([3]; clinical strain A0273375): 1 µg/mL
MIC ([3]; clinical strain A0273826): 4 µg/mL
MIC ([3]; clinical strain A0274925): 0.125 µg/mL
MIC ([3]; clinical strain A0283307): ≤ 0.063 µg/mL
MIC ([3]; clinical strain A0284214): ≤ 0.063 µg/mL
MIC ([3]; clinical strain A0284295): ≤ 0.063 µg/mL
MIC ([3]; clinical strain A0284552): 0.5 µg/mL
MIC ([3]; clinical strain A0285002): 1 µg/mL
MIC ([3]; clinical strain A0285050): 0.125 µg/mL
MIC ([3]; clinical strain A0285231): 1 µg/mL
MIC ([3]; clinical strain A0285299): ≤ 0.063 µg/mL
MIC ([3]; clinical strain A0285369): ≤ 0.063 µg/mL
MIC ([3]; clinical strain A0285909): 4 µg/mL
MIC ([3]; clinical strain A0286065): 1 µg/mL
MIC90 ([3]; clinically isolated Acinetobacter baumannii): 4 µg/mL
MIC value relative to that of Compound C ([3]; strains A0244122, A0255830, A0273826, A0285299, A0285909): ¼
MIC ([4]; clinical strain HDB0140): 1 µg/mL
MIC ([4]; clinical strain HDB0918): 0.25 µg/mL
MIC ([4]; clinical strain HDB1120): ≤ 0.063 µg/mL
MIC ([4]; clinical strain HDB5510): 0.125 µg/mL
MIC ([4]; clinical strain HDB8244): 0.5 µg/mL
MIC ([5]; strain HDBAB-YK12, in combination with 4 μg/mL Relebactam): 2 µg/mL
MIC ([5]; strain HDBAB-YK16, in combination with 4 μg/mL Relebactam): 4 µg/mL
MIC ([5]; strain HDBAB_OXA_7, in combination with 4 μg/mL Relebactam): 2 µg/mL
